{
  "source": "ChEMBL document CHEMBL4138296",
  "about": "“Nonacidic Chemotype Possessing N-Acylated Piperidine Moiety as Potent Farnesoid X Receptor (FXR) Antagonists” (ACS Med Chem Lett, 2018)",
  "key": {"[1]": {"target": "T1, Peroxisome proliferator-activated receptor gamma (Homo sapiens) (UniProt P37231)", "T1 sequence (whole entry)": "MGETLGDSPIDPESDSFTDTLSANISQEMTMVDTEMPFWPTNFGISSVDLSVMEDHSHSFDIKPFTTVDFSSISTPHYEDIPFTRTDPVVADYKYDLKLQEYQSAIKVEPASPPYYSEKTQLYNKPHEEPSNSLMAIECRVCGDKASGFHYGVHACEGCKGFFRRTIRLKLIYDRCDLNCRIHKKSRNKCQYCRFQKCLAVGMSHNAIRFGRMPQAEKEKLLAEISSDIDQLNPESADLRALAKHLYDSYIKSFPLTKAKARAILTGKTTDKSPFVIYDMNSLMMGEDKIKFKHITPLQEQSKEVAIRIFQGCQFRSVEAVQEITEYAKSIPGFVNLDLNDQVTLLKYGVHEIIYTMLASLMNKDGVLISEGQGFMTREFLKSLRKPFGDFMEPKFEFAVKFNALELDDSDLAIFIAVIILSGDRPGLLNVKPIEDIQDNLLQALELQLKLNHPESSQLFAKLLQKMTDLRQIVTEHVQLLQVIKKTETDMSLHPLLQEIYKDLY", "experiment": "Agonist activity at PPARgamma (unknown origin) at 1 uM by luciferase reporter gene assay"}, "Bile acid receptor [2]": {"target": "T2, Bile acid receptor (Homo sapiens, UniProt Q96RI1)", "T2 sequence (Q96RI1 whole entry)": "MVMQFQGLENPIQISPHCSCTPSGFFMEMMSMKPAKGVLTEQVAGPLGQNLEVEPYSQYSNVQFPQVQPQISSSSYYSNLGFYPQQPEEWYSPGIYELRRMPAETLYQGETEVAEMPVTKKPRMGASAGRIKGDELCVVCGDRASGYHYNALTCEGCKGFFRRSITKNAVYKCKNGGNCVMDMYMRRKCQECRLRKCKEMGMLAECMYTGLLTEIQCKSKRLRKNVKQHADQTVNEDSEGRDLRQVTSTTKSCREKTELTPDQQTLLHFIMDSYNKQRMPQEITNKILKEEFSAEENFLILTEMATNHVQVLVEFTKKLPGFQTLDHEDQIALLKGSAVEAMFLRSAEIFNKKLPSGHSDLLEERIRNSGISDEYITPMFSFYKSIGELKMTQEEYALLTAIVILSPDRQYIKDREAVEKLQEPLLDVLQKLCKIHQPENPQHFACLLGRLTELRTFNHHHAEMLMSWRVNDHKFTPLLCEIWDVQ", "experiment": "Antagonist activity at FXR in human HepG2 cells assessed as inhibition of CYP3A4 mRNA expression level at 0.02 to 2 uM after 48 hrs by RT-PCR analysis", "type": "ADME, cell-based", "settings": "hepg2, 48 h"}, "3T3-L1 [3]": {"system": "3T3-L1", "experiment": "Antiadipogenic activity in mouse 3T3L1 cells assessed as reduction in intracellular lipid droplets after 6 days by Oil Red O staining based assay", "type": "functional, cell-based"}, "3T3-L1 [4]": {"system": "3T3-L1", "experiment": "Cytotoxicity against mouse 3T3L1 cells assessed as reduction in cell viability measured up to 10 uM after 6 days by CCK-8 assay", "type": "cell-based", "settings": "3t3-l1, 144 h"}, "Bile acid receptor [5]": {"target": "T2, Bile acid receptor", "experiment": "Antagonist activity at GST-tagged FXR LBD (unknown origin) assessed as inhibition of GW4064-induced fluorecein-labeled SRC2-2 coactivator recruitment by Lanthascreen TR-FRET assay"}, "[6]": {"target": "T1, Peroxisome proliferator-activated receptor gamma (Homo sapiens)", "experiment": "Antagonist activity at PPARgamma (unknown origin) assessed as inhibition of GW1929-induced response at 1 uM by luciferase reporter gene assay"}, "[7]": {"target": "T3, Oxysterols receptor LXR-beta (Homo sapiens) (UniProt P55055)", "T3 sequence (whole entry)": "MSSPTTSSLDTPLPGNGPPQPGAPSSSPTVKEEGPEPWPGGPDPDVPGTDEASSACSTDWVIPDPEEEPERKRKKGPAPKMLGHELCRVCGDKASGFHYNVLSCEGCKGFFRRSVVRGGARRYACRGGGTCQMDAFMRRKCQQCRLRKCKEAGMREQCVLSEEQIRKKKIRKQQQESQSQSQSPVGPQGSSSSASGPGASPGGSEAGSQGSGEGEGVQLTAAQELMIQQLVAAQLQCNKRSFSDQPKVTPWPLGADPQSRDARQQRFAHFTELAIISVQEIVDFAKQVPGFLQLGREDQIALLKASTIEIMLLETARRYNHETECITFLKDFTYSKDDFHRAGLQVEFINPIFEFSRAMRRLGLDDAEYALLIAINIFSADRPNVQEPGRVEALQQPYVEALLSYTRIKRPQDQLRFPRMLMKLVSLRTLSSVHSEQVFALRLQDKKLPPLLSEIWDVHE", "experiment": "Agonist activity at LXRbeta (unknown origin) at 1 uM by luciferase reporter gene assay"}, "[8]": {"target": "T4, Vitamin D3 receptor (Homo sapiens) (UniProt P11473)", "T4 sequence (whole entry)": "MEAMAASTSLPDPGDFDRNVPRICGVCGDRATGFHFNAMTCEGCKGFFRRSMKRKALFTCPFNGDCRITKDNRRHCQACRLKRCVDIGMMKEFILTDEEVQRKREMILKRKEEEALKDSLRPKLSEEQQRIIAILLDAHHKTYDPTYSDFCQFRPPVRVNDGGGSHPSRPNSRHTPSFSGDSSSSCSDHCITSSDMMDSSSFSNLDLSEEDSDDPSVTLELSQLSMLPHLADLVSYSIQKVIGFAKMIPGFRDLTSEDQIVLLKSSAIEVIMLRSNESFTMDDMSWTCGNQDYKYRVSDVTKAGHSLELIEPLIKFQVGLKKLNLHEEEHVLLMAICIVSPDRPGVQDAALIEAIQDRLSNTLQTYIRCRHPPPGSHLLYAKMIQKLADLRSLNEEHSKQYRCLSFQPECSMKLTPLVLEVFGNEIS", "experiment": "Agonist activity at human VDR expressed in HEK293T cells at 1 uM by luciferase reporter gene assay", "type": "cell-based"}, "[9]": {"target": "T5, Retinoic acid receptor RXR-alpha (Homo sapiens) (UniProt P19793)", "T5 sequence (whole entry)": "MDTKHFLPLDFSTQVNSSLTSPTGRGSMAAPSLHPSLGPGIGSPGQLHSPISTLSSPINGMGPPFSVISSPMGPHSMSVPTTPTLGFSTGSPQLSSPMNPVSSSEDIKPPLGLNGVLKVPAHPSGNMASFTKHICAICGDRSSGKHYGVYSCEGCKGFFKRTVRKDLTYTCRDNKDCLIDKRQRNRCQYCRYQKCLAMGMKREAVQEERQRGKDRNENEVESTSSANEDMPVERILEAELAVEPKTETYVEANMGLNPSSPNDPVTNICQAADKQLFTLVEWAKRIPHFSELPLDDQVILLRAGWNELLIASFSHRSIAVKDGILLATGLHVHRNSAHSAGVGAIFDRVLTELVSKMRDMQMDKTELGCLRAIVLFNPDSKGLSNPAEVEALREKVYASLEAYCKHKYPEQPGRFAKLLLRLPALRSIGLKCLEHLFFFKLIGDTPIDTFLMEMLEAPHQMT", "experiment": "Antagonist activity at human RXRalpha expressed in HEK293T cells assessed as inhibition of 9-cis-retinoic acid-induced response at 1 uM after 24 hrs by luciferase reporter gene assay", "type": "cell-based"}},
  "note": "pIC50: −log10 of the molar value. Calls of active or inactive are those of the source. No cut-off for these calls is given here.",
  "data": [
    {"smiles": "Cc1ccc2nc([C@H](CC3CCN(C(=O)C(C)C)CC3)N3C(=O)CN(c4ccc(Oc5ccccc5)cc4)C3=O)n(C)c2c1", "values": [
      {"measurement": "Activity", "setting": "[1]", "result": "inactive"},
      {"measurement": "inhibition (INH)", "setting": "Bile acid receptor [2]", "result": "Not Active"},
      {"measurement": "Activity", "setting": "3T3-L1 [3]", "result": "Dose-dependent effect"},
      {"measurement": "Activity", "setting": "3T3-L1 [4]", "result": "Non-Toxic"},
      {"measurement": "pIC50", "setting": "Bile acid receptor [5]", "result": 7.46},
      {"measurement": "inhibition", "setting": "[6]", "result": "inactive"},
      {"measurement": "Activity", "setting": "[7]", "result": "inactive"},
      {"measurement": "Activity", "setting": "[8]", "result": "inactive"},
      {"measurement": "inhibition", "setting": "[9]", "result": "inactive"}
    ]}
  ]
}
